Some test systems named below: K-562 leukemia; EKVX NSCLC; SW-620 colon; MALME-3M melanoma; M14 melanoma; NCI-H460 lung; HCC-2998 colon; UO-31 renal; PC-3 prostate; HS 578T breast.
Experiment in all cases: NCI anticancer screen, dose series, 48 h

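Dose response: 5 concentrations. Exposure: 48 h. Format: 96-well plates. Endpoint: linear interpolation; highest concentration if not reached. Here, GI50 denotes the concentration required for 50% inhibition of growth. TGI denotes the concentration required for complete inhibition of growth.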

Take `Cc1ccc(S(=O)(=O)N/N=C/C(C)C)cc1`: the TGI with K-562 leukemia, in the assay with EKVX NSCLC, in the assay on SW-620 colon, in the assay on MALME-3M melanoma, in the assay with M14 melanoma and with NCI-H460 lung was > 100 µM each time. Besides, the TGI in the assay on HCC-2998 colon and in the assay with UO-31 renal was > 100 µM in each case.

Consider `Cc1nc2ccccc2nc1N=Nc1ccccc1`, for which the GI50 was 6.57 µM in the assay with PC-3 prostate; 25.7 µM in the assay on K-562 leukemia; 10.9 µM in the assay with EKVX NSCLC; 20.8 µM with MALME-3M melanoma; 17.7 µM in the assay with M14 melanoma; 37 µM in the assay with HCC-2998 colon. Also, in the assay on UO-31 renal, the GI50 is 7.99 µM. The TGI with PC-3 prostate is 60.2 µM; in the assay on K-562 leukemia, > 100 µM; in the assay with EKVX NSCLC, > 100 µM; in the assay on MALME-3M melanoma, 65.7 µM; in the assay on M14 melanoma, 44.8 µM; in the assay on HCC-2998 colon, > 100 µM. The TGI in the assay on UO-31 renal is > 100 µM.

Consider `COCCOCCOCCOc1cccc2c1C(=O)c1cccc(OCCOCCOCCOC)c1C2=O`, for which the TGI in the assay with K-562 leukemia, in the assay with EKVX NSCLC, with SW-620 colon, with M14 melanoma, with NCI-H460 lung and with HCC-2998 colon was > 100 µM each time.

For `c1ccc(OCc2nnc3n2N=C(c2ccccc2)CS3)cc1`, the TGI in the assay with K-562 leukemia, in the assay with SW-620 colon, in the assay on MALME-3M melanoma, in the assay on M14 melanoma, in the assay on NCI-H460 lung and in the assay on HCC-2998 colon was > 100 µM throughout. The TGI with UO-31 renal was > 100 µM.

As for `CC(=O)c1ccc(NC(=O)COC(=O)c2cccc3c(=O)c4ccccc4[nH]c23)cc1`, the TGI in the assay on K-562 leukemia, in the assay on EKVX NSCLC, with SW-620 colon, in the assay on MALME-3M melanoma, with M14 melanoma and in the assay on NCI-H460 lung was > 100 µM each time. Besides, the TGI with HCC-2998 colon and with UO-31 renal was > 100 µM each time.

With `Cc1nc2cc(Nc3nc(Nc4ccc(F)cc4)nc(N4CCOCC4)n3)ccc2n1Cc1ccccc1`, the GI50 with PC-3 prostate is 2.91 µM; with K-562 leukemia, 2.94 µM; in the assay on SW-620 colon, 3.97 µM; in the assay with M14 melanoma it was 3.16 µM; in the assay with NCI-H460 lung, 2.26 µM; in the assay with HS 578T breast it was 3.84 µM. Further, the GI50 in the assay on UO-31 renal was 3.24 µM. For the same compound, the TGI stood at 16.8 µM in the assay on PC-3 prostate; 11.7 µM in the assay with K-562 leukemia; 30.8 µM in the assay on SW-620 colon; 8.59 µM with M14 melanoma; 5.02 µM in the assay with NCI-H460 lung; 58.5 µM in the assay on HS 578T breast. Further, the TGI in the assay on UO-31 renal is 14.6 µM.

Consider `COc1cccc(SSc2cccc(OC)c2C(=O)O)c1C(=O)O`, for which the TGI in the assay with K-562 leukemia, in the assay with EKVX NSCLC, in the assay with SW-620 colon, with MALME-3M melanoma, in the assay with M14 melanoma and with NCI-H460 lung was > 100 µM each time. Besides, the TGI in the assay with UO-31 renal was > 100 µM.

As to `CC(=O)OC1=CC2(OC(C)=O)CC(C)(C)C1C1C(=O)C=CC(=O)C12` (configuration not stated), the TGI was > 100 µM in the assay with PC-3 prostate; > 100 µM in the assay with K-562 leukemia; > 100 µM in the assay on EKVX NSCLC; > 100 µM with SW-620 colon; 38.9 µM in the assay with MALME-3M melanoma; > 100 µM in the assay with M14 melanoma. Further, the TGI with NCI-H460 lung, in the assay on HCC-2998 colon and with UO-31 renal was > 100 µM each time.

For `O=c1cccc(-c2cccc(=O)[nH]2)[nH]1`, the TGI in the assay with K-562 leukemia, in the assay on EKVX NSCLC, with SW-620 colon, in the assay on MALME-3M melanoma, in the assay with M14 melanoma and in the assay with NCI-H460 lung was > 100 µM each time. The TGI in the assay with HCC-2998 colon and in the assay on UO-31 renal was > 100 µM throughout.

On to `COc1cc2ccnc3c(=C(SC)SC)c(=O)c(c1OC)c23`, for which the TGI with K-562 leukemia was 16.3 µM; in the assay on SW-620 colon, 31 µM; in the assay with MALME-3M melanoma, 24.7 µM; in the assay on M14 melanoma, 28.3 µM; in the assay on NCI-H460 lung it was > 100 µM; in the assay on HCC-2998 colon it was 32.6 µM. The compound also showed a TGI in the assay with UO-31 renal of 29.3 µM.

For the compound `O=C1OC(=O)C2C3C=CC(C12)C1C2C=CC2C31` (configuration not stated), the TGI in the assay with K-562 leukemia, with EKVX NSCLC, in the assay with SW-620 colon, in the assay with MALME-3M melanoma, with NCI-H460 lung and in the assay with HCC-2998 colon was > 100 µM in each case.

Consider `CCCCCCCCCCCc1c(O)c(=O)c2c(oc3c(=O)c(CCCCCCCCCCC)c(O)c(=O)c3n2-c2ccc(N(C)C)cc2)c1=O`, for which the TGI with K-562 leukemia was > 100 µM; in the assay with EKVX NSCLC, 67.7 µM; in the assay on SW-620 colon, 68.6 µM; with MALME-3M melanoma, 37.9 µM; in the assay on M14 melanoma it was 32.8 µM; in the assay with NCI-H460 lung, 36.1 µM.

For the compound `C=C(C(=C)P(=S)(C(C)C)C(C)C)P(=S)(C(C)C)C(C)C`, the TGI in the assay with K-562 leukemia, in the assay with EKVX NSCLC, in the assay with SW-620 colon, with MALME-3M melanoma, in the assay on M14 melanoma and with NCI-H460 lung was > 100 µM in each case. The TGI with HCC-2998 colon and in the assay on UO-31 renal was > 100 µM each time.

With `CC(=O)NC(C=O)C(O[C@H](C)C(=O)NC(C)C(=O)NC(CCC(N)=O)C(=O)OCc1ccccc1)C(O)C(O)COC(=O)CCNc1c2ccccc2nc2cccc([N+](=O)[O-])c12` (some centres not stated), the TGI in the assay on K-562 leukemia was found to be 9.62 µM; in the assay with EKVX NSCLC it was 22.3 µM; in the assay with SW-620 colon, 7.44 µM; in the assay with MALME-3M melanoma, 4.67 µM; in the assay with M14 melanoma it was 4.58 µM; in the assay with NCI-H460 lung, 3.44 µM. The TGI came to 2.94 µM in the assay on HCC-2998 colon and 35.9 µM in the assay with UO-31 renal.

As for `CC(=O)c1ccc(NC(=O)C(=O)C(C#N)CC(C)(C)C=O)cc1` (configuration not stated), the TGI in the assay with K-562 leukemia, in the assay with EKVX NSCLC, in the assay on SW-620 colon, in the assay on MALME-3M melanoma, in the assay with M14 melanoma and with NCI-H460 lung was > 100 µM each time. The TGI with HCC-2998 colon and in the assay with UO-31 renal was > 100 µM each time.

As for `COc1ccc(NC(=O)CC(=O)n2nc(C)c(N=Nc3ccccc3C(=O)O)c2C)cc1`, the TGI with K-562 leukemia, in the assay on EKVX NSCLC, with SW-620 colon, with MALME-3M melanoma, with M14 melanoma and in the assay with NCI-H460 lung was > 100 µM in each case. The TGI with HCC-2998 colon and with UO-31 renal was > 100 µM each time.

(Values after PubChem BioAssay (NCI).)
